Here are results for one sequence from US10383926B2, “Biological markers useful in cancer immunotherapy” (GEMVAX & KAEL CO., LTD., priority 2013, dated 2019).

One data set concerns 26 cytokines in serum. Put plainly: Luminex multiplex inflammatory cytokine analysis of patient serum (TeloVac trial). Format: in vivo, human. As to the method:
(§1) The TeloVac trial, was initiated in January 2007 comparing combination therapy with Gemcitabine and Capecitabine (GemCap) therapy with concurrent and sequential chemo-immunotherapy using GV1001 in locally advanced and metastatic pancreatic cancer.
(§2) After this, GV1001 was administered once monthly. GM-CSF was administered separately as an intradermal injection 10-15 minutes before all GV1001 injections at the approximately same site.
Cytokine Results: The Kruskal-Wallis comparison of Arm 2 and Arm 3 baseline (i.e. before treatment) with arm 2 week 7 (GemCap) with Arm 3 week 10 (GemCap and GV1001) serum samples are shown in table 1 below.
Paired analysis was carried out for: • Arm 2 patients at baseline and following 7 weeks of GemCap treatment. • Arm 3 patients at baseline and following 10 weeks of GemCap and GV1001 treatment.

The subject of data set [1] is locally advanced and metastatic pancreatic cancer. Put plainly: Survival analysis, TeloVac Phase III trial. Format: in vivo, human. The settings on record: 1062 patients, 52 centres. As to the method: The TeloVac trial recruited 1062 patients in 52 centres throughout the UK. […] Importantly, biomarkers for an increased survival in response to the vaccine were identified in a subgroup of patients.
as §1, §2

The subject of data set [2] is advanced pancreatic and pulmonary cancer patients. Conditions: cited from earlier work.
For a further data set, the system named is HLA class II molecules. The settings on record: cited from earlier work.

Where only a bound is given, the exact number is not on record here.

For the sequence “EARPALLTSRLRFIPK (listed as Homo sapiens) [GV1001, 16-mer peptide, fragment of the human telomerase enzyme]”, the anti-inflammatory response result in the data set with 26 cytokines in serum (TeloVac translational research) was “significant anti-inflammatory response”. In the data set with 26 cytokines in serum (human, in vivo), the “regulation of serum levels of eotaxin or MIP1α” value is “did not appear that treatment with GV1001 could regulate”. Moreover, the “change of serum cytokine levels, pre-treatment compared to post treatment” value in the data set with 26 cytokines in serum (serum, paired analysis) is given as “this decrease was not evident”. In addition, the “overall survival versus control group receiving chemotherapy” value in data set [1] is “no significant difference in overall survival”. In addition, in data set [2], the “GV1001-specific T-cell responses, subjects” value was over 50% and the toxicity result was “without clinically important toxicity”. In addition, the HLA binding entry in the data set with HLA class II molecules is “binds multiple HLA class II molecules”.
